Results as given in patent US7109177B2, “Methods and compositions for the manufacture of C-3′ and C-4′ anthracycline antibiotics” (Houston Pharmaceuticals, Inc., priority 1999, dated 2006).
Several values for one entry are separate records, joined by “and”; a condition that tells them apart may be missing. Identical values can stand only once. Like-named read-outs stand apart in the source and are kept apart here.

Assays:
[1] = tested on: KB-V1 (KBV1) carcinoma cells; test: MTT cytotoxicity assay, multi-drug-resistant KB-V1 cells (MDR1/P-gp); assay type: cell-based, human; set-up: ID50 KBV1: unit not given here; conditions: for Effectiveness as measured by resistance index (RI), in words: in vitro, compared with daunorubicin or doxorubicin
Protocol: (§1) In vitro drug cytotoxicities against human breast carcinoma wild-type MCF-7 and MRP-resistant MCF-7NP-16 cells were assessed by using the […], as previously reported (Green et al., 1984). […] Drugs were then added to the wells to achieve a final drug concentration ranging from 0.1 to 50 μg/mL. Four wells were used for each concentration. […] After a 4-hour incubation, 100 μL of buffer containing 50% N,N-dimethylformamide and 20% SDS was added to solubilize the MTT formazan. […] Results and Discussion
(§2) Thus, for the in vitro evaluation of substituted anthracyclines having C-3′ alkylated anthracyclines modified at benzyl ring and having 4′-substituted-benzylated anthracyclines, the inventors selected two sensitive cell lines: a human carcinoma KB and MCF-7 human breast cancer, the multi-drug-resistant (MDR) counterpart of KB (KBV1 carcinoma), which overexpresses MDR1 gene that encodes a membrane transport glycoprotein (P-gp), the MCF-7NVP-16 cell line that overexpresses the multi-drug-resistant associated protein (MRP), and the MCF-7/dox cell line which overexpresses MDR1 gene.

CEM leukemic cells = test: Quantitative apoptotic DNA fragmentation assay; assay type: cell-based; conditions: 24 h incubation
From the text: Results are from two independent studies carried out in duplicate.

human carcinoma KB cells = test: MTT cytotoxicity assay, sensitive KB cells; assay type: cell-based
Protocol: as §1, §2

[2] = tested on: human breast carcinoma MCF-7 cells; set-up: unit not given beside the values
MCF-7/DOX cells = test: MTT cytotoxicity assay, MCF-7/DOX cells (MDR1)
breast tumors = test: In vivo prevention of tumor development in a mouse cancer model; conditions: compared with buffer-treated control mice that develop tumors
Protocol: In an initial round of in vivo trials, a mouse model of human cancer with the histologic features and metastatic potential resembling tumors seen in humans (Katsumata et al., 1995) is used. The animals are treated with analogs of anthracyclines having C-3′-substitutions as described or anthracycline analogs with C-4′-substitutions synthesized in the present invention to determine the suppression of tumor development.
Two groups of mice of a suitable cancer model are treated with doses of substituted anthracyclines with substitutions at the C-3′-sugar or having C-4′-substituted sugar moietied. Several combinations and concentrations of the substituted anthracyclines are tested. Control mice are treated with buffer only.
The effect of substituted anthracyclines on the development of breast tumors is compared with the control group by examination of tumor size and histopathologic examination (breast tissue is cut and stained with hematoxylin and eosin) of breast tissue.

[3] = tested on: sensitive and MDR tumor cell lines; test: In vitro evaluation of cytotoxicity compared with DOX (cell line not given); assay type: cell-based, human; conditions: for Cytotoxicity compared to DOX, in words: in vitro evaluation; for Direct comparison of cytotoxicity with DOX, in words: effect of C-3′ and C-4′ substitutions on potency
Protocol: as §1, §2

[4] = Table 2, MTT assay, mean of at least 4 experiments

Protocol for MCF-7/VP-16 cells: Compounds synthesized using the methods described above were tested using a standard MTT. assay (Green et al., 1984) against human carcinoma sensitive (KB) and multi drug-resistant (KBV1) cells and MCF-7 and MCF-7/VP-16 resistant cells characterized as having the MRP (multi-drug resistant associated protein) phenotype.
In vitro drug cytotoxicities against human breast carcinoma wild-type MCF-7 and MRP-resistant MCF-7NP-16 cells were assessed by using the MT reduction assay, as previously reported (Green et al., 1984). […] Drugs were then added to the wells to achieve a final drug concentration ranging from 0.1 to 50 μg/mL. Four wells were used for each concentration. […] After a 4-hour incubation, 100 μL of buffer containing 50% N,N-dimethylformamide and 20% SDS was added to solubilize the MTT formazan.

COc1cccc2c1C(=O)c1c(O)c3c(c(O)c1C2=O)C[C@@](O)(C(=O)CO)C[C@@H]3O[C@H]1C[C@H](N)[C@H](O)[C@H](C)O1 [DOX, doxorubicin, reference compound]
ID50 KB-V1 [1, 4]: >100 µg/mL and 109 ± 28 µg/mL
RI (resistance index) KB-V1 vs KB ([1]; Table 2, higher RI = less effective against MDR): >200
ID50 KBV1 ([1]; Table 3, EXP. 1): >100
RI (KBV1 vs KB) ([1]; Table 3, EXP. 1): >42.6
ID50 KBV1 ([1]; Table 3, under EXP. 2): 174 ± 32 and >100
Fragmented DNA, % Total DNA (CEM leukemic cells; 0.1 μM): −0.2%
Fragmented DNA, % Total DNA (CEM leukemic cells; 0.5 μM): 27.1%
Fragmented DNA, % Total DNA (CEM leukemic cells; 1 μM): 28.7%
Fragmented DNA, % Total DNA (CEM leukemic cells; 2 μM): 38.3%
ID50 KB (human carcinoma KB cells; [4]): 0.50 ± 0.0 µg/mL and 0.43 ± 0.19 µg/mL
ID50 KB (human carcinoma KB cells; Table 3, EXP. 1): 2.35
ID50 MCF-7 ([2]; Table 3, EXP. 1): 0.3
ID50 MCF-7 ([2]; Table 3, under EXP. 2): 0.50 ± 0.26 and 0.53 ± 0.25
ID50 MCF-7/DOX (MCF-7/DOX cells; Table 3, EXP. 1): >100
RI (MCF-7/DOX vs MCF-7) (MCF-7/DOX cells; Table 3, EXP. 1): >333
ID50 MCF-7/DOX (MCF-7/DOX cells; Table 3, under EXP. 2): >100
RI (MCF-7/DOX vs MCF-7) (MCF-7/DOX cells; Table 3, under EXP. 2): >189
ID50 MCF-7/VP-16 (MCF-7/VP-16 cells; Table 3, EXP. 1): 3.0
RI (MCF-7/VP-16 vs MCF-7) (MCF-7/VP-16 cells; Table 3, EXP. 1): 10
ID50 MCF-7/VP-16 (MCF-7/VP-16 cells; Table 3, under EXP. 2): 8.3 ± 0.5 and 6.87 ± 0.58
RI (MCF-7/VP-16 vs MCF-7) (MCF-7/VP-16 cells; Table 3, under EXP. 2): 16.6 and 13

CC(=O)O[C@H]1[C@@H](N=[N+]=[N-])C[C@@H](O[Si](C)(C)C(C)(C)C)O[C@H]1C [WP417, 4-O-acetyl-3-Azido-1-O-t-butyldimethylsilyl-2,3,6-trideoxy-β-L-lyxo hexapyranose]
Tumor development in treated mice, predicted (breast tumors): resistant to tumor development

C[C@@H]1O[C@H](O[Si](C)(C)C(C)(C)C)C[C@H](N=[N+]=[N-])[C@@H]1O [WP418, t-Butyldimethylsilyl 3-azido- -2,3,6-trideoxy-β-L-lyxo hexapyranose]
Tumor development in treated mice, predicted (breast tumors): resistant to tumor development

CCCCC(=O)OCC(=O)[C@]1(O)Cc2c(O)c3c(c(O)c2[C@@H](O[C@H]2C[C@H](O)[C@H](OCc4ccccc4)[C@H](C)O2)C1)C(=O)c1c(OC)cccc1C3=O [WP571, 3-deamino-4-O-benzyl-3-O-hydroxy-14-O-pentanoyl-doxorubicin]
Tumor development in treated mice, predicted (breast tumors): resistant to tumor development
Cytotoxicity compared to DOX, in words [3]: unusually potent cytotoxic agents

COc1cccc2c1C(=O)c1c(O)c3c(c(O)c1C2=O)C[C@@](O)(C(=O)CO)C[C@@H]3O[C@H]1C[C@H](O)[C@H](OCc2ccccc2)[C@H](C)O1 [WP727, 4-O-benzyl-3-deamino-3-hydroxy-doxorubicin]
Tumor development in treated mice, predicted (breast tumors): resistant to tumor development
Cytotoxicity compared to DOX, in words [3]: unusually potent cytotoxic agents

COc1cccc2c1C(=O)c1c(O)c3c(c(O)c1C2=O)C[C@@](O)(C(=O)CO)C[C@@H]3O[C@H]1C[C@H](N)[C@H](OCc2ccccc2)[C@H](C)O1 [WP744, 4′-O-Benzyl-doxorubicin]
ID50 KBV1 ([1]; Table 3, EXP. 1): 2.76 ± 0.52
RI (KBV1 vs KB) ([1]; Table 3, EXP. 1): 1.84
ID50 KBV1 ([1]; Table 3, under EXP. 2): 2.1 ± 0.5 and 4.07 ± 1.85
Effectiveness as measured by resistance index (RI), in words [1]: significantly more effective
Fragmented DNA, % Total DNA (CEM leukemic cells; 0.05 μM): 17.8%
Fragmented DNA, % Total DNA (CEM leukemic cells; 0.1 μM): 31.3%
Fragmented DNA, % Total DNA (CEM leukemic cells; 0.5 μM): 46.7%
ID50 KB (human carcinoma KB cells; Table 3, EXP. 1): 1.44 ± 0.45
Tumor development in treated mice, predicted (breast tumors): resistant to tumor development
ID50 MCF-7 ([2]; Table 3, EXP. 1): 1.63 ± 0.5
Cytotoxicity compared to DOX, in words [3]: unusually potent cytotoxic agents
ID50 MCF-7/DOX (MCF-7/DOX cells; Table 3, EXP. 1): 5.25
RI (MCF-7/DOX vs MCF-7) (MCF-7/DOX cells; Table 3, EXP. 1): 3.22
ID50 MCF-7/DOX (MCF-7/DOX cells; Table 3, under EXP. 2): 0.89 ± 0.10
RI (MCF-7/DOX vs MCF-7) (MCF-7/DOX cells; Table 3, under EXP. 2): 2.41
ID50 MCF-7/VP-16 (MCF-7/VP-16 cells; Table 3, EXP. 1): 2.3 ± 1.9
RI (MCF-7/VP-16 vs MCF-7) (MCF-7/VP-16 cells; Table 3, EXP. 1): 1.41
RI (MCF-7/VP-16 vs MCF-7) (MCF-7/VP-16 cells; Table 3, under EXP. 2): 1.4 and 1.6

COc1cccc2c1C(=O)c1c(O)c3c(c(O)c1C2=O)C[C@@](O)(C(=O)CO)C[C@@H]3O[C@H]1C[C@H](N)[C@@H](OCc2ccccc2)[C@H](C)O1 [WP750, 4′-O-Benzyl-4′epi-doxorubicin]
ID50 KBV1 ([1]; Table 3, under EXP. 2): 56 ± 29
RI (KBV1 vs KB) ([1]; Table 3, under EXP. 2): 8.8
Effectiveness as measured by resistance index (RI), in words [1]: significantly more effective
ID50 KB (human carcinoma KB cells; Table 3, under EXP. 2): 6.4
Tumor development in treated mice, predicted (breast tumors): resistant to tumor development
Direct comparison of cytotoxicity with DOX, in words [3]: drastically increase the potency
Cytotoxicity compared to DOX, in words [3]: unusually potent cytotoxic agents

CC(=O)[C@]1(O)Cc2c(O)c3c(c(O)c2[C@@H](O[C@H]2C[C@H](N)[C@H](OCc4ccccc4)[C@H](C)O2)C1)C(=O)c1ccccc1C3=O [WP783, 4′-O-Benzyl-4-demethoxydaunorubicin]
ID50 KBV1 ([1]; Table 3, under EXP. 2): 1.1 ± 0.8
RI (KBV1 vs KB) ([1]; Table 3, under EXP. 2): 2.6
Effectiveness as measured by resistance index (RI), in words [1]: significantly more effective
ID50 KB (human carcinoma KB cells; Table 3, under EXP. 2): 0.43 ± 0.21
Tumor development in treated mice, predicted (breast tumors): resistant to tumor development
Direct comparison of cytotoxicity with DOX, in words [3]: drastically increase the potency
Cytotoxicity compared to DOX, in words [3]: unusually potent cytotoxic agents

CC(=O)[C@]1(O)Cc2c(O)c3c(c(O)c2[C@@H](O[C@H]2C[C@H](N)[C@H](OCc4ccc(F)cc4)[C@H](C)O2)C1)C(=O)c1ccccc1C3=O [WP797, 4′-(4-Fluoro-benzyloxy)-4-demethoxydaunorubicine]
Tumor development in treated mice, predicted (breast tumors): resistant to tumor development
Cytotoxicity compared to DOX, in words [3]: unusually potent cytotoxic agents

COc1cccc2c1C(=O)c1c(O)c3c(c(O)c1C2=O)C[C@@](O)(C(=O)CO)C[C@@H]3O[C@H]1C[C@H](N)[C@H](OCc2c(F)cccc2F)[C@H](C)O1 [WP799, 4′-(2,6-difluoro-benzyloxy)-doxorubicine]
Tumor development in treated mice, predicted (breast tumors): resistant to tumor development
Cytotoxicity compared to DOX, in words [3]: unusually potent cytotoxic agents
